US11985974B2, “Antimicrobial ferulic acid derivatives and uses thereof” (WISCONSIN ALUMNI RESEARCH FOUNDATION, priority 2014, dated 2024)

Legend:
yeast = details: against yeast, literature values; cited from earlier work
yeast cells = assay: Cell leakage assay (FungaLight, flow cytometry); type: cell-based, Saccharomyces cerevisiae; details: 4 h
Description: A FungaLight Cell Viability Assay (L34952; Invitrogen) using a Guava Flow Cytometer (Millipore) was used to determine if poacic acid caused membrane damage. The population of stained cells (damaged integrity) vs. nonstained cells can be determined by flow cytometry. Caspofungin (50 ng/mL) was included as a positive control. MMS and DMSO were included as a noncell wall-targeting control and a solvent control, respectively. To test the effects of the compounds on both active and arrested cells, log-phase cultures were washed with 1×PBS and resuspended to an OD0.5 in either YPD medium or YP (no carbon source) in the presence of the drugs (n=3) for 4 h at 30° C. The cells were then stained and immediately read by flow cytometry. One-way ANOVA and Tukey's test were used to calculate the difference between drug treatments among cells with arrested growth.

SMILES	IC50 (yeast)	cell leakage (propidium iodide uptake) (yeast cells; actively growing cells (YPD))	cell leakage (propidium iodide uptake) (yeast cells; arrested cells without carbon source (YP))
NC(=O)OC[C@H](O)[C@@H](O)[C@H](N)C(=O)N[C@H](C(=O)O)[C@H]1O[C@@H](n2cc(C(=O)O)c(=O)[nH]c2=O)[C@H](O)[C@@H]1O [polyoxin D]	340 µM		
c1ccc2[nH]c(-c3cscn3)nc2c1 [thiabendazole]	607 µM		
O=S(=O)([O-])[O-].[Cu+2] [copper sulfate]	2400 µM		
CO/C=C(/C(=O)OC)c1ccccc1COc1cccc(C(F)(F)F)n1 [picoxystrobin]	308 µM		
CCCN(CCOc1c(Cl)cc(Cl)cc1Cl)C(=O)n1ccnc1 [prochloraz]	132 µM		
O=C1C2CC=CCC2C(=O)N1SC(Cl)(Cl)Cl (stereo not drawn) [captan]	19 µM		
COS(C)(=O)=O [MMS, methyl methanesulfonate]		did not	
CC[C@H](C)C[C@H](C)CCCCCCCCC(=O)N[C@H]1C[C@@H](O)[C@@H](NCCN)NC(=O)[C@@H]2[C@@H](O)CCN2C(=O)[C@H]([C@H](O)CCN)NC(=O)[C@H]([C@H](O)[C@@H](O)c2ccc(O)cc2)NC(=O)[C@@H]2C[C@@H](O)CN2C(=O)[C@H]([C@@H](C)O)NC1=O [caspofungin]		caused rapid cell leakage	diminished
